Experimental data as given in US8414885B2, “Methods and compositions for treating cancer” (priority 2009, dated 2013).
Peptide text beside a SMILES is read from it. * marks the point of attachment. Cbz = O=C(OCc1ccccc1)*; CH2F = FC*

Legend:
Format in all cases: cell-based, human
calpain = assay: Immunoblotting for calpain activation in infected melanoma cells; settings: delta-PK infected cultures; PD150606 100 μM; z-VAD-fmk 100 μM (Sigma-Aldrich) or 20 μM (Promega)
From the text: (§1) FIG. 6. Calpain and caspase-7 and caspace-3 are activated in delta-PK infected melanoma cells. […] Data were quantified by densitometry and expressed as the ratio of the p76/p80 and p28 densitometric units +/−SD, respectively. Representatives of three replicate experiments are shown (***p<0.001 vs. Mock). B. The immunoblots in FIG. 6A were sequentially stripped and re-probed with antibodies to activated caspase-7, activated caspase-3, and actin. Data were quantified by densitometry and results are expressed as densitometric units +/−SD (**p<0.01, ***p<0.001 vs. Mock). C. […]
(§2) Cultured cells were lysed with radioimmunoprecipitation buffer [RIPA; 20 mM Tris-HCl (pH 7.4), […], 1% Nonidet P-40, 0.1% sodium dodecyl sulfate (SDS), 0.5% sodium deoxycholate] supplemented with protease and phosphatase inhibitor cocktails (Sigma-Aldrich), and sonicated twice for 30 seconds at 25% output power with a sonicator ultrasonic processor (Misonix, Inc., Farmingdale, N.Y.). […] Protein concentration was determined by the bicinchoninic assay (Pierce, Rockford, Ill.), and 100 μg protein samples were resolved by SDS-polyacrylamide gel elecrophoresis (SDS-PAGE) and transferred to polyvinylidene fluoride membranes followed by immunoblotting. […] Quantitation was by densitometric scanning with the Bio-Rad GS-700 imaging densitometer (Bio-Rad, Hercules, Calif.). […]

caspase-3 = assay: Immunoblotting for caspase-3 activation in infected melanoma cells; settings: delta-PK infected cultures, PD150606 100 μM, 24 hrs p.i.
From the text: as §1, §2

A375 cells = assay: EtHD cell death with or without protease inhibitors, A375; settings: A375, delta-PK moi=0.5, 72 hrs p.i.; PD150606 100 μM or z-VAD-fmk 20 μM
Experimental: FIG. 7. Delta-PK induced melanoma cell death is both calpain and caspase-dependent. A. A2058 cells were infected with delta-PK (moi=0.5) or mock-infected with PBS and cultured without or with PD150606 (100 μM), z-VAD-fmk (20 µM) or both PD150606 and z-VAD-fmk. DMSO (28 mM) was used as vehicle control. Replicate cultures (n=3) were stained with EtHD at various times p.i. and the % staining cells calculated. B. A375 cells were infected with delta-PK (moi=0.5) in the absence or presence of inhibitors and stained with EtHD+. Delta-PK infected WI-38 cells and mock infected DMSO treated cells served as controls.
Cell death was determined by trypan blue exclusion and staining with ethidium homodimer-1 (EtHD), a cell impermeable red fluorescent nuclear stain that increases intensity after binding to the DNA of dead cells. […] Dead cells were counted by four independent hemacytometer counts. […] Stained cells were counted in five randomly selected 3 mm^2 fields (≧250 cells each), and the % positive cells was calculated relative to total number of cells imaged by phase contrast microscopy (Gober M D, Laing J M, Thompson S M, Aurelian L. The growth compromised HSV-2 mutant DeltaRR prevents kainic acid-induced apoptosis and loss of function in organotypic hippocampal cultures. Brain Res 2006; 1119: 26-39). […]

| SMILES | effect of inhibitor on delta-PK induced calpain activation (p76/p80 ratio, p28) (calpain) | effect of inhibitor on levels of caspase-3p17 cleavage product (caspase-3) | % EtHD+ cells in delta-PK infected cultures in presence of inhibitor (A375 cells) |
| --- | --- | --- | --- |
| O=C(O)/C(S)=C/c1ccc(I)cc1 [PD150606] | inhibited | increased | 49.1+/−2.5% |
| COC(=O)C[C@H](NC(=O)[C@H](C)NC(=O)[C@@H](NC(=O)OCc1ccccc1)C(C)C)C(=O)CF [z-VAD-fmk, benzyloxcarbonyl-Val-Ala-Asp-fluormethyl ketone] (Cbz-Val-Ala-Asp(OMe)-CH2F) | did not affect calpain activation |  | 49.6+/−3.7% |
